The text below walks through data of patent US11421237B2, “Pair of amino acid sequences for monitoring formation of TDP-43 oligomer in living cells via bimolecular fluorescence complementation” (KOREA INSTITUTE OF SCIENCE AND TECHNOLOGY, priority 2019, dated 2022).

What all share (type): cell-based, human
The subject of test [1] is TDP-43-BiFC cells. Description: BiFC fluorescence analysis of TDP-43 oligomer formation in TDP-43-BiFC cells (384-well, Operetta). The settings on record: 48 hours at 37° C.; for increase of BiFC fluorescence in the cells compared to untreated cells: forskolin 30 μM, scriptaid 3 μM, thapsigargin 1 μM, ionomycin 1 μM, Cu^2+ 1 μM, Zn^2+ 30 μM; for change in BiFC fluorescence of TDP-43 (in words): MG132 5 μM, α-synuclein 5 μg/ml, tauK18^P301L 5 μg/ml. The procedure:
In order to develop a TDP-43-BiFC cell line, the TDP-43-VN173 and TDP-43-VC155 constructs shown in FIG. 2 were co-transfected into HEK293 BiFC cells. For establishment of a stable cell line, the transfected cells were selected by culture with growth medium containing 100 μg/mL geneticin (G418; Sigma). In addition, the selected cells were sorted using FACSAria (BD Bioscience) into cells showing fluorescence. The sorted TDP-43-BiFC cells were kept in DMEM medium containing 10% FBS, 100 units/mL penicillin, 100 μg/mL streptomycin and 100 μg/mL G418 in a humidified atmosphere at 37° C. under 5% CO2.
The TDP-43-BiFC cells prepared in Example 1 above were treated with a compound that induces PTMs of protein, a compound that ER stress in cells, amyloid protein, metal ions, or the like, and changes in BiFC fluorescence in the cells were examined. Specifically, for fluorescence analysis, the TDP-43-BiFC cells were grown in a 384-well plate and treated with each of forskolin (30 μM), scriptaid (3 μM), thapsigargin (1 μM), ionomycin (1 μM), MG132 (5 μM), α-synuclein (5 μg/ml), tauK18^P301L (5 μg/ml), Cu^2+ (1 μM) and Zn^2+ (30 μM), followed by culture at 37° C. for 48 hours. Fluorescence images were obtained using Operetta® (PerkinElmer), and the fluorescence intensity in the nucleus and the cytoplasmic fluorescence intensity were analyzed using Harmony3.1 software (PerkinElmer).

Test [2] concerns TDP-43-BiFC cells. Description: Intracellular distribution of BiFC fluorescence, high-magnification imaging. As to conditions: treated as in Example 2 (scriptaid 3 μM, 48 hours); 1000× magnification. From the text: Next, the pattern of intracellular distribution by an increase in TDP-43 oligomer formation was examined. Specifically, TDP-43 formation was induced in the same manner as Example 2 above, and then the whole plate was automatically imaged using Operetta®, and high-resolution images were obtained using a Nikon Eclipse inverted microscope (Ti, Nikon) at 1000× magnification.

For test [3], the system named is TDP-43-BiFC cells. Nature of the test: Isolation of TDP-43 oligomer with GFP-trap beads and immunoblot with anti-TDP-43 antibody. The settings on record: 24 hours at 37° C., forskolin 30 μM, scriptaid 1 μM, thapsigargin 0.5 μM, ionomycin 1 μM, SDS-PAGE, immunoblot. The procedure: Lysates of the TDP-43-BiFC cells treated with each of the four drugs in Example 3 and a lysate of untreated cells were prepared and TDP-43 oligomers were isolated therefrom. Specifically, TDP-43-BiFC cells were grown in a 6-well plate, treated with each of forskolin (30 μM), scriptaid (1 μM), thapsigargin (0.5 μM) and ionomycin (1 μM), and cultured at 37° C. for 24 hours, and then lysates of the cells were prepared. GFP-trap beads shown in FIG. 5a were added to the lysates which were then incubated at 4° C. for 16 hours, and the oligomerized TDP-43 protein was isolated. The isolated protein was separated by SDS-PAGE, and immunoblot analysis was performed using anti-TDP-43 antibody.

Values joined by “and” are separate entries in the source; they are usually repeats but may differ in a detail not shown here. Equal entries are not always repeated. “Also recorded” adds a separate entry of the source. Peptide text beside a SMILES is read from it. * marks the point of attachment. Cbz = O=C(OCc1ccccc1)*

As for `[Cu+2]` [Cu^2+], the “increase of BiFC fluorescence in the cells compared to untreated cells” value (shortened to “increase of BiFC fluorescence”) in the test on TDP-43-BiFC cells [1] is listed as “about 2 fold”.
With `CC(C)C[C@@H](C=O)NC(=O)[C@H](CC(C)C)NC(=O)[C@H](CC(C)C)NC(=O)OCc1ccccc1` [MG132] (Cbz-Leu-Leu-Leu-aldehyde), in the test with TDP-43-BiFC cells [1], the “change in BiFC fluorescence of TDP-43 (in words)” value is “no change”.
Consider `[Zn+2]` [Zn^2+], for which, in the test with TDP-43-BiFC cells [1], the “increase of BiFC fluorescence” value was “about 2 fold”.
On the same count and under the same terms, for `C[C@H](CCC(=O)O)C[C@H](C)C[C@H](C)C(=O)/C=C(\O)[C@H](C)C[C@H](C)C/C=C/[C@@H](C)[C@@H](O)[C@@H](C)[C@@H](O)C[C@@H]1CC[C@@](C)([C@H]2CC[C@@](C)([C@@H](C)O)O2)O1` [ionomycin] the value was 7 fold.
Turning to `O=C(CCCCCN1C(=O)c2cccc3cccc(c23)C1=O)NO` [scriptaid], the “distribution of BiFC fluorescence in nucleus and cytoplasm” value with TDP-43-BiFC cells [2] was “greatly increased the fluorescence not only in the nucleus but also in the cytoplasm; also recorded: significantly increased not only in the nucleus but also in the cytoplasm”. Moreover, the “amount of detected oligomerized TDP-43 protein compared to untreated cells” value in the test with TDP-43-BiFC cells [3] is given as “largest amount”. Besides, the “increase of BiFC fluorescence” value in the test on TDP-43-BiFC cells [1] is 36 fold and 48 fold.
For `C/C=C(/C)C(=O)O[C@H]1C(C)=C2[C@H]([C@@H]1OC(=O)CCCCCCC)[C@@](C)(OC(C)=O)C[C@H](OC(=O)CCC)[C@@]1(O)[C@H]2OC(=O)[C@@]1(C)O` [thapsigargin], in the test on TDP-43-BiFC cells [1], the “increase of BiFC fluorescence” value stood at 31 fold.
With tauK18^P301L, the “change in BiFC fluorescence of TDP-43 (in words)” value in the test on TDP-43-BiFC cells [1] is “did not increase”.
The same measure, in the same setting: for α-synuclein the value was “did not increase”.
